Experimental data from patent US3988473A (priority 1975, dated 1976).
“And” between values parts separate entries of the source, which are not always exact repeats. Identical values can stand only once. Like-named read-outs stand apart in the source and are kept apart here.

Columns and labels:
[1] = system: rat sciatic nerve; conditions: in vivo
[2] = system: brain and the spinal cord; conditions: in vivo
[3] = system: guinea pigs; conditions: guinea pig, in vivo, sc, 646 mg/kg
[4] = in vivo; conditions: rat, sc
[5] = system: Dog; conditions: in vivo
[6] = in vivo; conditions: mouse, ip
[7] = system: Guinea Pig Intradermal Wheals; conditions: in vivo
[8] = in vivo; conditions: mouse
[9] = system: Cat; conditions: in vivo
[10] = system: isolated frog sciatic nerve; set-up: species or system Rana pipiens; conditions: for Greatest Depth of Block (% of action potential): frog, sciatic nerve
[11] = system: Female Mice; conditions: mouse, in vivo
[12] = in vivo
[13] = system: tissue; conditions: in vivo
[14] = system: Sheep; conditions: in vivo

SMILES: CCCCN(CC(=O)Nc1c(C)cccc1C)C(C)(C)C [Compound E, 2-(N-n-butyl-tert.-butylamino)-2',6'-acetoxylide]
- Duration of rat sciatic nerve block, Mean ± S.D. [1]: 174 ± 26 min and 200 ± 18 min and 237 min
- Frequencies and durations (in words) [1]: Frequencies and durations were good
- Frequency of rat sciatic nerve block [1]: 9/10 and 10/10
- Pathological change in brain and spinal cord [2]: no pathological change attributable to the drugs was found
- Survival [3]: all animals survived
- LD50 [4]: 1070 mg/kg
- Duration of block of Digital Pain [5]: 1 to 2 days
- Recovery of the animals [5]: All animals recovered completely
- LD50 [6]: 284 mg/kg

SMILES: Cc1cccc(C)c1NC(=O)C(C)NC(C)(C)C (centres unmarked) [Compound B, 2-(tert.-butylamino)-2',6'-propionoxylidide]
- Adverse signs in rat sciatic test [1]: Depression, ataxia, loss of righting reflex in some animals
- Duration [1]: 128 ± 13 and 133 ± 7
- Frequency [1]: 5/5
- Onset [1]: 3 min and 2 min
- Rat Sciatic Frequency [1]: 8/10 and 10/10
- Guinea Pig Wheal Duration [7]: 139 ± 24 and 160 ± 43 and 184 ± 36
- Guinea Pig Wheal Frequency [7]: 12/12
- LD50 [6]: 61 mg/kg

SMILES: CCCCN1CCCCC1C(=O)Nc1c(C)cccc1C (centres unmarked) [X, N-n-butylpipecolyl-2,6-xylidide, reference compound]
- Duration of guinea pig intradermal wheals [7]: 182 ± 4 min and 252 ± 5 min and 314 ± 10 min
- LD50 ([8]; ip): 40 mg/kg
- LD50 ([8]; iv): 6.4 mg/kg
- LD50 ([8]; sc): 45 mg/kg
- Toxic effects [9]: Toxic effects observed
- Average time for 80% recovery of action potential [10]: 65 min
- Greatest Depth of Block (% of action potential) ([10]; 5000 µM): 64%

SMILES: CCCN(CC(=O)Nc1c(C)cccc1C)C(C)(C)CC [Compound D, 2-(N-n-propyl-tert.-amylamino)-2',6'-acetoxylidide]
- Duration of block, 2 animals outside the mean [1]: 10 to 13 days
- Duration of rat sciatic nerve block [1]: 217 ± 25 min and 124 ± 50 min and 157 ± 30 min
- Duration of rat sciatic nerve block (days) [1]: 8 to 27 days and 13 to 30 days
- Pathological change in brain and spinal cord [2]: no pathological change attributable to the drugs was found
- Duration of guinea pig intradermal wheals [7]: 171 ± 26 min and 227 ± 21 min and 253 ± 16 min and 303 ± 19 min
- Acute toxicity (in words) [11]: satisfactory low acute toxicity
- LD50 ([8]; ip): 39 mg/kg
- LD50 ([8]; iv): 6.8 mg/kg
- LD50 ([8]; sc): 109 mg/kg
- Duration of anaesthesia (in words) [12]: significantly longer duration than compounds A and B
- Local anaesthetic effect (in words) [12]: unusual, long-lasting local anaesthetic effect and high local anaesthetic activity
- Irritation compared with bupivacaine [13]: not more irritating than bupivacaine at 0.5% concentration
- Tissue irritation (in words) [13]: satisfactory low level of tissue irritation
- Duration of block of Digital Pain [14]: 45 to 60 min
- Onset time [14]: 5 to 10 min
- Duration of block of Digital Pain [5]: 1 to 2 days
- Duration, Digital Pain [5]: 289 min and 338 min
- Duration, Scrotal Pain [5]: 218 min and 226 min
- Recovery of the animals [5]: All animals recovered completely
- Average time for 80% recovery of action potential [10]: 163 min
- Greatest Depth of Block (% of action potential) ([10]; 5000 µM): 96%

SMILES: CCN(CC)CC(=O)Nc1c(C)cccc1C [Y, diethylaminoaceto-2,6-xylide, reference compound]
- Duration of guinea pig intradermal wheals [7]: 78 ± 9 min and 110 ± 13 min and 117 ± 6 min and 121 ± 12 min
- Duration of Block of Support of Weight [9]: 88 ± 10 min

SMILES: CCC(C)(C)NCC(=O)Nc1c(C)cccc1C [Compound F, 2-(N-tert.-amylamino)-2',6'-acetoxylidide]
- Duration [1]: 97 ± 4 and 101 ± 8
- Frequency [1]: 6/6
- Onset [1]: 3 min and 2 min

SMILES: CCN(CC(=O)Nc1c(C)cccc1C)C(C)(C)CC [C, 2-(N-ethyl-tert.-amylamino)-2',6'-acetoxylidide]
- Duration of rat sciatic nerve block (days) [1]: 1 to 8 days
- Duration of guinea pig intradermal wheals [7]: 158 ± 49 min and 230 ± 32 min and 301 ± 11 min
- Acute toxicity (in words) [11]: satisfactory low acute toxicity
- LD50 ([8]; ip): 81 mg/kg
- LD50 ([8]; iv): 7.4 mg/kg
- Duration of anaesthesia (in words) [12]: significantly longer duration than compounds A and B
- Local anaesthetic effect (in words) [12]: unusual, long-lasting local anaesthetic effect and high local anaesthetic activity
- Irritation compared with bupivacaine [13]: not more irritating than bupivacaine at 0.5% concentration
- Tissue irritation (in words) [13]: satisfactory low level of tissue irritation
- Duration of Block of Support of Weight [9]: 220 ± 64 min and 298 ± 56 min
- Duration of Block of Support of Weight, 1 animal outside the mean [9]: > 7 h
- Average time for 80% recovery of action potential [10]: 29 min
- Greatest Depth of Block (% of action potential) ([10]; 20000 µM): 77%

SMILES: Cc1cccc(C)c1NC(=O)CNC(C)(C)C [A, 2-(tert.-butylamino)-2',6'-acetoxylidide]
- Duration [1]: 126 ± 12 and 157 ± 18
- Frequency [1]: 5/5
- Onset [1]: 5 min
- Duration of guinea pig intradermal wheals [7]: 129 ± 14 min and 148 ± 20 min and 186 ± 17 min and 197 ± 14 min
- Intravenous toxicity (in words) ([11]; iv): unusually low intravenous toxicity
- LD50 ([8]; ip): 119 mg/kg
- LD50 ([8]; iv): 35.4 mg/kg
- LD50 ([8]; sc): 141 mg/kg
- Local anaesthetic effect (in words) [12]: unusually long-lasting local anaesthetic effect
- Tissue irritation (in words) [13]: quite satisfactory
- Duration of Block of Support of Weight [9]: 54 ± 9 min and 104 ± 29 min
